Positions count from the first letter of the chain named. Counter-ions that a name gives are not always drawn.
What was measured:
[1] = Hydrolysis by human intestine s9 fractions; assay type: in vitro ADME; conditions: substrate 100 μM, 3 concentrations of HIS9
[2] = Hydrolysis by human kidney s9 fractions; assay type: in vitro ADME; conditions: substrate 100 μM, 3 concentrations of HKS9
[3] = biological target: T1, CES1 in individual human liver s9 fractions (Homo sapiens, UniProt P23141); assay type: in vitro ADME; conditions: 143G/G livers; HLS9 0.5 mg/ml, enalapril 500 μM, 37 °C, 10 min
T1 sequence (P23141 18-567): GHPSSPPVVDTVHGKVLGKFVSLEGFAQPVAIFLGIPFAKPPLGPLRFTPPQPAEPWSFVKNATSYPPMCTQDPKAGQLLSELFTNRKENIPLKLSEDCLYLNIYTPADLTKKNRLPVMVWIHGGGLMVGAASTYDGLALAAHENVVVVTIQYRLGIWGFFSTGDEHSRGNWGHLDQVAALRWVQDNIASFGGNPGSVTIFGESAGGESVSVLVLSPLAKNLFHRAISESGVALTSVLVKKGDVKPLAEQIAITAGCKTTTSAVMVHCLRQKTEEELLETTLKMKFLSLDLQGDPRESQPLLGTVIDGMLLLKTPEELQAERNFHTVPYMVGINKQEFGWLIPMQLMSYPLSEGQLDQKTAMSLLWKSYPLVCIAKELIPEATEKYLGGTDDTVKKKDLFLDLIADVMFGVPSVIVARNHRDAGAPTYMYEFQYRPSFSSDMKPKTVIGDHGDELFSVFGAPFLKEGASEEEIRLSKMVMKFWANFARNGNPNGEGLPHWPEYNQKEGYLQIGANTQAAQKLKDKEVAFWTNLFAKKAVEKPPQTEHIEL

[4] = tested on: CES1 in individual human liver s9 fractions; assay type: in vitro ADME
CES1 variant G19V = biological target: T2, CES1 variant G19V (Homo sapiens, UniProt P23141, G18V); assay: Enalapril hydrolysis by CES1 variant G19V transfected cell s9; assay type: in vitro ADME; conditions: enalapril 500 μM
T2 sequence (P23141 18-568 isoform P23141-2 G19V limits assumed): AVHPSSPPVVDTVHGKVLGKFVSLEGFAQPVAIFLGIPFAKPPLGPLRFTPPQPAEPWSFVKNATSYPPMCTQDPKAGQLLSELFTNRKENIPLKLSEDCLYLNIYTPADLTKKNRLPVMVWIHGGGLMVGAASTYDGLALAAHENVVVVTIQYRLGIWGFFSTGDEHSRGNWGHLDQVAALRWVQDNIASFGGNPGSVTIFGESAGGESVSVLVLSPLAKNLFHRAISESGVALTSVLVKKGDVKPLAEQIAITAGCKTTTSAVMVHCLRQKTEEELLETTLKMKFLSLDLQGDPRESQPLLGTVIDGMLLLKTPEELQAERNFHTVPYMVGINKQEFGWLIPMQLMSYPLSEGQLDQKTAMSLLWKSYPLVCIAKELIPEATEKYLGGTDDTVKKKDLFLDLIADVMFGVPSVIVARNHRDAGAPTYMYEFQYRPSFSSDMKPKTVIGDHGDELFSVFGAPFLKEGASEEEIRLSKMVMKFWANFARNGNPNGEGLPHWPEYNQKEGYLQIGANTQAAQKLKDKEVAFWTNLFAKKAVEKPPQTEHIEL

CES1 variant S83L = biological target: T3, CES1 variant S83L (Homo sapiens, UniProt P23141, S82L); assay: Enalapril hydrolysis by CES1 variant S83L transfected cell s9; assay type: in vitro ADME; conditions: enalapril 500 μM
T3 sequence (P23141 18-568 isoform P23141-2 S83L limits assumed): T2 sequence (P23141 18-568 isoform P23141-2 G19V limits assumed) with V2G, S66L

CES1 variant A270S = biological target: T4, CES1 variant A270S (Homo sapiens, UniProt P23141, A269S); assay: Enalapril hydrolysis by CES1 variant A270S transfected cell s9; assay type: in vitro ADME; conditions: enalapril 500 μM
T4 sequence (P23141 18-568 isoform P23141-2 A270S limits assumed): T2 sequence (P23141 18-568 isoform P23141-2 G19V limits assumed) with V2G, A253S

[5] = human, pH 7.4
[6] = human liver samples, enalapril 500 μM

With CCOC(=O)[C@H](CCc1ccccc1)N[C@@H](C)C(=O)N1CCC[C@H]1C(=O)O [Enalapril, Enalapril maleate] the “Hydrolysis by human intestine s9 fractions” value [1] was “No appreciable activation”, the “Hydrolysis by human kidney s9 fractions” value [2] was “No appreciable activation” and the enalapril activation rate [3] was 55.4±37.3 pmole/min/mg protein. The “CES1 activity in the null-CES1 liver samples (some G143E non-carriers)” value ([4]; CES1 expression comparable to pooled HLS9) was “null CES1 activity”, the “CES1 activity on enalapril activation, 143G/E livers as fraction of 143G/G” value ([4]; human liver samples) was “approximately 1/3” and the “CES1 activity on enalapril activation between CES1P1/CES1P1, CES1P1/CES1P1VAR and CES1P1VAR/CES1P1VAR genotypes” value [4, 6] was “no significant differences”. The “CES1 activity on enalapril hydrolysis among CES1/CES1, CES1/CES1VAR and CES1VAR/CES1VAR genotypes” value [4, 6] was “comparable”, the “CES1 activity on enalapril activation within the nine CES1/CES1P1 diplotypes” value ([4]; one way ANOVA, activity P=0.549) was “no significant differences” and the “Catalytic activity of G19V on enalapril activation vs WT CES1” value (CES1 variant G19V) was “comparable to the WT CES1”. The “Catalytic activity of S83L on enalapril activation vs WT CES1” value (CES1 variant S83L) was “comparable to the WT CES1”, the “Catalytic activity of A270S on enalapril activation vs WT CES1” value (CES1 variant A270S) was “comparable to the WT CES1” and the “Clint (Vmax/Km)” value [5] was 1.1 μl/min/mg protein. For the same compound, the Vmax (Hydrolysis; HLS9, PBS pH 7.4, 37 °C, unit for enalapril) was 67.5 ± 1.3 pmole/min/mg protein, the Km (Hydrolysis; human, pooled human liver s9 fractions (HLS9), pH 7.4) was 60.1 ± 4.2 µM and the “Hydrolysis to active metabolite by human liver s9 fractions” value (Hydrolysis; prodrug 100 μM, 3 concentrations of HLS9) was “efficiently hydrolyzed”.

Source: PMC6329299 (The pharmacogenomics journal, 2015)
